We go through nine molecules from patent US20100286233A1, “PERIPHERAL AND NEURAL INFLAMMATORY CROSSTALK” (University of Rochester, priority 2006, published 2010).

Like-named read-outs stand apart in the source and are kept apart here.

In test [1] the test system is C2C12 cell line. Description: C2C12 conversion to osteoblastic phenotype, alkaline phosphatase histochemistry. Type of test: cell-based.
Description: In vitro studies: The C2C12 cell line, an in vitro model of chondrocyte differentiation and maturation, was obtained from ATCC and cultured in DMEM plus 10% normal bovine serum for 4 days as previously described (Katagiri, T., et al. 1994). In addition, cells were treated with BMP-2 (300 ng/mL) or alternatively with BMP-2 plus PGE2 (10^−8M) or recombinant IL-1β (10 ng/mL) or butaprost (10^−8M) in the culture medium. At the end of the experiment, cells were fixed with 10% formalin. Alkaline phosphatase expression was evaluated using the BCIP/NBT histochemistry method (Vector Labs, Burlingame Calif.). Positively-stained cells were counted in 10 random 20× fields using an inverted Olympus CK41 microscope.
The subject of test [2] is avian mesenchymal limb bud cells. As to conditions: cited from earlier work.
The test system of test [3] is growth plate. As to conditions: systemic injection; cited from earlier work.
For test [4], the system named is mice. As to conditions: cited from earlier work.
Test [5] has as its system μ-receptor. The note with it: in vivo; cited from earlier work.
Test [6] deals with mouse recombinant DOR-1 receptor (Mus musculus, UniProt P32300). As to conditions: cited from earlier work.
The target of test [7] is μ-receptors (Homo sapiens, UniProt P35372). As to conditions: cited from earlier work.
For test [8], the target named is κ-receptors (Homo sapiens, UniProt P41145). The note with it: cited from earlier work.
Test [9] concerns the target δ-receptors (Homo sapiens, UniProt P41143). The note with it: cited from earlier work.
The test system of test [10] is C57BL/6 mice. Briefly: Intracisternal IL-1β injection, brain stem IHC for GFAP and CGRP. Type of test: in vivo, mouse. The note with it: 2 ng in 2 μl into the cisterna magna, two days later. The procedure:
Murine IL-1β (2 ng in 2 μl of normal saline) was injected […] in the cisterna magna of deeply anesthetized C57BL/6 mice (anesthetic: ketamine 40 mg/kg IP). Two days later, the mice were sacrificed, […] transcardially with 4% paraformaldehyde in phosphate buffered saline solution and the brain stem was harvested, frozed and cut at 18 μm thick horizontal sections which were collected on glass slides. The histology slides were then analyzed by immunohistochemistry (IHC) using antibodies raised against calcitonin gene-related peptide (CGRP; […]) and glial fibrillary acidic protein (GFAP; Dako).

[11] abbreviates: MOR-1 knockout mice, disruption in exon-1.

Chain of mouse recombinant DOR-1 receptor (P32300 whole entry): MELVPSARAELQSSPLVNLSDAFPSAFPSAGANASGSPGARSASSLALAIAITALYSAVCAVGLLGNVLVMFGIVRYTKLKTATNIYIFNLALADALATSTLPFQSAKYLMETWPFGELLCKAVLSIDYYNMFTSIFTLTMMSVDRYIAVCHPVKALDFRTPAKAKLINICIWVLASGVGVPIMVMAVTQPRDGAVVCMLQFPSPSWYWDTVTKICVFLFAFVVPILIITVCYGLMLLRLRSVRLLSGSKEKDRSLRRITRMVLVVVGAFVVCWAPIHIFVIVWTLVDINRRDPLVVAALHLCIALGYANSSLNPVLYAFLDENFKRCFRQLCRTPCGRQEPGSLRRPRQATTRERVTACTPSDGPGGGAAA
Chain of μ-receptors (P35372 whole entry): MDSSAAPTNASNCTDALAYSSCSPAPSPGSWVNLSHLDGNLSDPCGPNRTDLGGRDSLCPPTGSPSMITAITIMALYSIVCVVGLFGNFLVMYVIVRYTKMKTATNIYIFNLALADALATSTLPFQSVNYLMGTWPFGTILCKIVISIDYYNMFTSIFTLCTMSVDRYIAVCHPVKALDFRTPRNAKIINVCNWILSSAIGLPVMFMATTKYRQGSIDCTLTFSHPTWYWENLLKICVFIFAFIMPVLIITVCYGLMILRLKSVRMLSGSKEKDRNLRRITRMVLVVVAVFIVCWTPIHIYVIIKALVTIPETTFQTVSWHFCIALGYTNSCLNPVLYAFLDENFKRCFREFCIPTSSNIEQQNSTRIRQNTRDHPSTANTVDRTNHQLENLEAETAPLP
Chain of κ-receptors (P41145 whole entry): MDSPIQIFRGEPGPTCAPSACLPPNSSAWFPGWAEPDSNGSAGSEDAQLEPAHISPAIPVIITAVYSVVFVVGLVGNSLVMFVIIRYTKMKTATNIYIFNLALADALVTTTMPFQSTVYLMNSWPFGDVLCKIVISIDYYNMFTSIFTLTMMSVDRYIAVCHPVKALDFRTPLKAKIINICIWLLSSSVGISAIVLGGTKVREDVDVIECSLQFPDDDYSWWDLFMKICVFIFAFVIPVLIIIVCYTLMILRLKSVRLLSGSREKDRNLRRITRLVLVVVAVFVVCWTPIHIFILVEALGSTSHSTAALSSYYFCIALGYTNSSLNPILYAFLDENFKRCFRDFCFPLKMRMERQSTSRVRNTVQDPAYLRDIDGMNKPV
Chain of δ-receptors (P41143 whole entry): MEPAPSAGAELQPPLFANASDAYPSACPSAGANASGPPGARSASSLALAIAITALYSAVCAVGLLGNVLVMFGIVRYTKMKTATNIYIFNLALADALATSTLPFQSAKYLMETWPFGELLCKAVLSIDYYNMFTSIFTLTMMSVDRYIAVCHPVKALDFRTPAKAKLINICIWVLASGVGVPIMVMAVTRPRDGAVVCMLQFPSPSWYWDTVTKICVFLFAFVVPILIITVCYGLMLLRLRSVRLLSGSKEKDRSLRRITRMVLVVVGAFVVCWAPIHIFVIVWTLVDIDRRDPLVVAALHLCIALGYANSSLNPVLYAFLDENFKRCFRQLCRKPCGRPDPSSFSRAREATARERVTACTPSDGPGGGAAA

Consider `CCCCC[C@H](O)/C=C/[C@H]1[C@H](O)CC(=O)[C@@H]1C/C=C\CCCC(=O)O` [PGE2, prostaglandin E2], for which, in [1] (BMP-2 plus PGE2 (10^-8M), 4 days, versus BMP-2), the “increase in the number of cells expressing alkaline phosphatase” value is given as “approximately 5 fold”. Moreover, the “conversion of differentiating C2C12 cells to an osteoblastic phenotype” value in test [1] (under the stimulus of BMP-2) was “acceleration of their conversion to an osteoblastic phenotype”. For the same molecule, the chondrogenesis result in [2] is listed as “enhances chondrogenesis”; in [2] (in the presence of indomethacin), “stimulates chondrogenesis”. In addition, in [3], the “growth plate and limb growth” value was “thinner growth plate with decreased size of hypertrophic chondrocytes and reduced limb growth”.

Regarding `CC(=O)Oc1ccc2c3c1O[C@H]1[C@@H](OC(C)=O)C=C[C@H]4[C@@H](C2)N(C)CC[C@@]341` [heroin], the antinociception entry in test [4] (setting [11]) was “still produce antinociception”; in test [4] (mice of the CXBX strain), “potently antinociceptive”.

For `COc1ccc2c(c1)c(CC(=O)O)c(C)n2C(=O)c1ccc(Cl)cc1` [indomethacin], the chondrogenesis entry in [2] is “inhibit chondrogenesis”.

Regarding `CN1CC[C@]23c4c5ccc(O)c4O[C@H]2[C@@H](O[C@@H]2O[C@H](C(=O)O)[C@@H](O)[C@H](O)[C@H]2O)C=C[C@H]3[C@H]1C5` [morphine-6b-glucuronide], the figures for the antinociception entry in test [4] (setting [11]) and in test [4] (mice of the CXBX strain) were “still produce antinociception” and “potently antinociceptive”, respectively.

As for `CN1CC[C@]23c4c5ccc(O)c4O[C@H]2[C@@H](O)C=C[C@H]3[C@H]1C5` [morphine], the antinociception entry was “not” in test [4] (setting [11]) and “poor antinociceptive agent” in test [4] (mice of the CXBX strain).

With `C=CCN1CC[C@]23c4c5ccc(O)c4O[C@H]2/C(=N\N)CC[C@@]3(O)[C@H]1C5` [naloxazone], in test [5], the “induction of morphine dependence” value is on record as “did not block”, the morphine-induced antinociception result is recorded as “selectively blocked” and the morphine-induced respiratory depression result is listed as “did not block”.

Turning to `Oc1ccc2c3c1O[C@H]1c4oc5ccccc5c4C[C@@]4(O)[C@@H](C2)N(CC2CC2)CC[C@]314` [naltriben, Naltriben], the “displacement of [3H]-diprenorphine binding” value in [6] was “more highly displaced by naltriben than BNTX”.

As for “β-endorphin: endogenous opioid peptide from pro-opiomelanocortin, SEQ ID NO: 129”, the “affinity for μ-receptors” value in [7] is “equiactive at μ- and δ-receptors”. In addition, the “affinity for κ-receptors” value in test [8] was “much lower affinity”. Further, the “affinity for δ-receptors” value in test [9] was “equiactive at μ- and δ-receptors”.

B1: IL-1β: murine interleukin-1β cytokine injected into the cisterna magna (protein, UniProt P10749 118-269, looked up)
Interleukin-1 beta: VPIRQLHYRLRDEQQKSLVLSDPYELKALHLNGQNINQQVIFSMSFVQGEPSNDKIPVALGLKGKNLYLSCVMKDGTPTLQLESVDPKQYPKKKMEKRFVFNKIEVKSKVEFESAEFPNWYISTSQAEHKPVFLGNNSGQDIIDFTMESVSS
Turning to B1, in test [10], the “expression of CGRP in the descending trigeminal nucleus (medullary dorsal horn)” value was “induced” and the “expression of GFAP in the descending trigeminal nucleus (medullary dorsal horn)” value is “induced”.
